“And” between values parts separate entries of the source, which are not always exact repeats. Identical values can stand only once.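 Five compound concentrations were applied to cells in 96-well plates for 48 hours; endpoints were derived by simple linear interpolation of the resulting dose-response curve. The concentration for 50% growth inhibition is given as GI50. TGI: total growth inhibition.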
Columns and labels:
Assay in all cases: DTP human tumour cell line panel, 48 h
MCF7 breast = system: MCF7 breast
T-47D breast = system: T-47D breast
EKVX NSCLC = system: EKVX NSCLC
CAKI-1 renal = system: CAKI-1 renal
SK-MEL-2 melanoma = system: SK-MEL-2 melanoma
HCT-15 colon = system: HCT-15 colon
HL-60(TB) leukemia = system: HL-60(TB) leukemia
IGROV1 ovarian = system: IGROV1 ovarian
HOP-62 NSCLC = system: HOP-62 NSCLC
786-0 renal = system: 786-0 renal

SMILES | TGI (MCF7 breast) [µM] | TGI (T-47D breast) [µM] | GI50 (EKVX NSCLC) [µM] | TGI (EKVX NSCLC) | GI50 (CAKI-1 renal) [µM] | TGI (CAKI-1 renal) | GI50 (SK-MEL-2 melanoma) [µM] | GI50 (HCT-15 colon) [µM] | TGI (HCT-15 colon) | GI50 (HL-60(TB) leukemia) [µM] | TGI (HL-60(TB) leukemia) | GI50 (IGROV1 ovarian) [µM] | TGI (IGROV1 ovarian) [µM] | GI50 (HOP-62 NSCLC) [µM] | TGI (HOP-62 NSCLC) | TGI (786-0 renal) | GI50 (MCF7 breast) [µM] | GI50 (T-47D breast) [µM] | TGI (SK-MEL-2 melanoma) [µM] | GI50 (786-0 renal) [µM]
Cc1ccc(/C=C2\CNC/C(=C\c3ccc(C)cc3)C2=O)cc1 | > 100 | > 24.8 | 2.85 | 8.3 µM and 20.8 µM | 1.63 | 4.49 µM and 7.54 µM | 1.9 | 0.407 | 1.45 µM and 3.62 µM | 1.41 | 6.46 µM and 2.53 µM | 3.64 | 4.92 | 3.26 | 9.75 µM and 7.33 µM | 2.79 µM and 3.89 µM | – | – | – | –
COc1cc2cc(Oc3ccc(NC(=O)c4cccc5c4OCCO5)cc3)c(C)nc2cc1OC | > 100 | 15.4 | 5.32 | > 100 µM | 14.2 | > 100 µM | 32.9 | 7.87 | > 100 µM | 5.38 | > 100 µM | 64.5 | > 100 | 9.13 | 94.6 µM | > 100 µM | 6.27 | 2.82 | > 100 | 4.7
COc1ccc2[nH]c(-c3ccccc3)cc2c1 | > 100 | > 100 | 59 | > 100 µM | > 100 | > 100 µM | > 100 | > 100 | > 100 µM | > 100 | > 100 µM | > 100 | > 100 | > 100 | > 100 µM | > 100 µM | 86.6 | 19.3 | > 100 | > 100
c1ccc(CC(NCCNC(Cc2ccccc2)c2ccccc2)c2ccccc2)cc1 (stereo not given) | 1.14 | 0.693 | 0.482 | 3.17 µM | 0.456 | 2.44 µM | 1.16 | 0.463 | 1.64 µM | 0.322 | 0.89 µM | 0.605 | 2.84 | 1.17 | 2.86 µM | 1.59 µM | 0.311 | 0.243 | 2.57 | 0.383
CCCn1cnc2c(SCc3ccccc3)nc(N)nc21 | > 100 | > 100 | 67.3 | > 100 µM | 89.3 | > 100 µM | – | 37.8 | > 100 µM | 65.3 | > 100 µM | > 100 | > 100 | > 100 | > 100 µM | > 100 µM | > 100 | 56.9 | – | > 100
COc1ccc(/C=C(/C(=O)n2cnnn2)c2cc(OC)c(OC)c(OC)c2)cc1 | > 100 | > 100 | 5.48 | > 100 µM | 4.15 | > 100 µM | 6.64 | 2.03 | > 100 µM | 2.77 | > 100 µM | 4.69 | > 100 | 4.82 | > 100 µM | > 100 µM | 2.63 | > 100 | > 100 | 4.76
CC1(C)C2CCC13C(=O)C1OC3(C2)C2C(=O)c3c(O)cccc3C(=O)C12 (stereo not given) | 15.4 | 6.58 | 8.37 | 21.4 µM | 1.4 | 2.95 µM | 3.69 | 0.362 | 0.905 µM | 0.355 | 1.2 µM | – | – | 16.1 | 31.7 µM | 0.829 µM | 3.37 | 0.906 | > 100 | 0.319
Cc1n(Cc2ccc3ccccc3c2)c(Cl)c(Cl)[n+]1Cc1ccc2ccccc2c1 | 3.37 | 6.44 | 2.4 | 8.01 µM | 1.85 | 4.67 µM | 2.07 | 2.29 | 6.52 µM | 1.11 | 3.55 µM | 1.39 | 2.81 | 1.79 | 3.81 µM | 3.14 µM | 1.61 | 2.05 | 4.13 | 1.71
O=C(O)Cn1ccnc1[N+](=O)[O-] | > 100 | > 100 | – | > 100 µM | – | > 100 µM | – | – | > 100 µM | – | > 100 µM | – | > 100 | – | > 100 µM | > 100 µM | – | – | > 100 | –
O=C(Nc1ccccc1O)c1ccc(CNC(=O)c2ccsc2Nc2ccnc(C(F)(F)F)c2)cc1 | 10.4 | > 100 | 3.09 | 14.5 µM | 2.62 | 9.96 µM | 2.1 | 3.31 | 18.9 µM | 2.86 | 9.32 µM | 2.8 | 13.5 | 7.84 | > 100 µM | 5.34 µM | 2.03 | 2.71 | 6.26 | 2.29
Cn1cnc([N+](=O)[O-])c1Sc1nc(N)nc2nc[nH]c12 | > 100 | > 100 | 3.9 | > 100 µM | 2.72 | > 100 µM | 6.16 | 5.11 | > 100 µM | 5.69 | > 100 µM | 14 | > 100 | 1.22 | > 100 µM | > 100 µM | 2.47 | 8.57 | > 100 | 2.04
O=C(Cc1ccc(/C=C/C(=O)c2ncc[nH]2)cc1)Nc1ccc(C(F)(F)F)cc1 | 4.31 | 12.3 | 5.57 | 14.6 µM | 4.43 | 9.47 µM | 7.09 | 1.04 | 4.79 µM | 2.03 | 20 µM | 3.84 | 15.9 | 4.8 | 12 µM | 6.07 µM | 0.851 | 3.97 | 16.7 | 1.4
CCOCNc1ccc(N2C(=O)/C(=C/c3ccc(N(CC)CC)cc3)N=C2c2ccccc2)cc1 | > 100 | > 100 | > 100 | > 100 µM | 12.5 | 56.8 µM | 13.7 | 1.06 | > 100 µM | 25 | > 100 µM | – | – | 12.6 | 35.3 µM | 22.9 µM | 36.5 | 84 | 31 | 5.64

Reference: PubChem BioAssay (NCI)
